Reference: patent US20170281578A1, “METHODS FOR TREATING METABOLIC DISTURBANCES” (THE BOARD OF REGENTS OF THE UNIVERSITY OF TEXAS SYSTEM, priority 2016, published 2017)

What was measured:
[1] = Crossover trial in pre- or Stage I hypertension: serum and 24-hour urinary K and Mg; format: in vivo, human; settings: 4-week phases, 20 meq K bid; vs placebo phase, p<0.01
From the text: In the inventors' published study (Vongpatanasin, 2016), 30 patients with pre- (6 subjects) or Stage I (24 subjects) hypertension underwent a crossover trial, whereby they took KMgCit powder (20 meq K, 10 meq Mg and 37 meq citrate twice daily), KCit powder (20 meq K and 20 meq citrate twice daily), KCl powder (20 meq K and 20 meq chloride twice daily), or placebo (microcrystalline cellulose) for four weeks each. Among hypertensive subjects, 17 of 24 received antihypertensive treatment before study participation. All treated subjects received single-drug regimen before participation in the study (6 were on β blockers, 11 on angiotensin receptor blockers, or angiotensin-converting enzyme inhibitors, or calcium channel blockers), which was continued at the same dose throughout the study. None of the subjects had low serum Mg<1.8 mg/dl or serum K<3.5 meq/l or were on diuretic therapy.
Serum K and 24-hour urinary K excretion were increased during KCl, KCit, and KMgCit phases compared with placebo phase (p <0.01 vs placebo). Serum Mg was increased during KMgCit phase compared with placebo and KCl phases (both p<0.01); 24-hour urinary Mg excretion was increased during KMgCit phase compared with placebo and KCit (both p<0.01). 24-hour urinary Mg excretion was higher during KMgCit compared with KCl (p=0.017).

serum triglyceride = experiment: Serum triglyceride in healthy adults on HCTZ with KMgCit or KCl; format: in vivo, human; settings: from 1 month to 5 months of treatment; with HCTZ 50 mg/day; 40 meq K/day; p=0.09 between groups
Method: In the inventors' prior study (Odvina, & Pak, 2006), previously unpublished data on serum triglyceride were extracted. Eight healthy adult subjects took HCTZ 50 mg/day with KMgCit containing 40 meq K and 20 meq Mg/day for 6 months. Ten subjects received HCTZ 50 mg/day with KC1 40 meq K/day. Serum triglyceride declined by −32±41 mg/dL from 1 month to 5 months of treatment in the KMgCit group; It was underaltered from 1 month to 5 months of KCl treatment (0±31 mg/dL). The difference of the change in serum triglyceride between KMgCit and KCl groups was marginally significant (p=0.09). No baseline or 6 month data were available.

serum FGF23 = experiment: Crossover randomized trial in pre- or Stage I hypertension: serum FGF23; format: in vivo, human; settings: 30 patients; after 4 weeks of treatment; 20 meq K twice daily; p=0.05
Method: FIG. 4 illustrates effect of KMgCit on serum FGF23.
In the inventors' study, 30 patients with pre- or Stage I hypertension participated in a crossover randomized trial, whereby they took KMgCit powder (20 meq K, 10 meq Mg and 37 meq citrate twice daily) or KCl powder (20 meq K and 20 meq chloride twice daily) for four weeks each. After 4 weeks of treatment, serum samples were analyzed fro FGF23.

[2] = test system: RAA-SNS, serum aldosterone, fasting glucose, HOMA-IR; settings: cited from earlier work

SMILES | 24-hour urinary K excretion [1] | Serum K [1] | Change in serum triglyceride (serum triglyceride) [mg/dL] | Serum FGF23 (serum FGF23) [Rel U/ml] | CTD-induced activation of RAA-SNS ([2]; KCl supplementation) | Serum aldosterone ([2]; TZ-treated patients with hypertension, KCl supplementation) | CTD-induced fasting hyperglycemia and increased HOMA-IR ([2]; correction of hypokalemia by KCl)
O=C([O-])CC(O)(CC(=O)[O-])C(=O)[O-].[K+].[K+].[K+] [KCit powder, potassium citrate] | increased | increased | – | – | – | – | –
[Cl-].[K+] [KCl powder, potassium chloride] | increased | increased | 0 ± 31 | 53.1±22.2 | unaffected | did not reduce | did not reverse
